Experimental data: the supplement of paper PMC11061612

Legend:
Test in all cases: Bliss excess, mean over the matrix (fraction); higher = more synergy
U251 (Low Grade Glioma) = tested on: U251 (Low Grade Glioma)
In short: (§1)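 After 24 hours at 37°C and 5% CO2 in 1536-well plates, cells in DMEM/F12 or RPMI plus 10% FBS received two-drug dose matrices for 72 hours. Viability came from CellTiter-Glo 2.0 luminescence and was scaled as inhibition, anchored at 0 by vehicle wells and at 1 by blank wells. Combination Emax is taken as the second-highest inhibition in the matrix, and Bliss excess as the observed combination effect less EA + EB − EA·EB, with EA and EB the single-agent effects.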

CHP-212 (Neuroblastoma) = tested on: CHP-212 (Neuroblastoma)
In short: as §1

[1] = tested on: TE-6 (Esophageal Squamous Cell Carcinoma)
In short: as §1

[2] = tested on: COLO-678 (Colorectal Carcinoma)
In short: as §1

[3] = tested on: MKN28 (Gastric Carcinoma)
In short: as §1

[4] = tested on: NCI-H1792 (Lung Adenocarcinoma)
In short: as §1

[5] = tested on: NCI-H847 (Small Cell Lung Carcinoma)
In short: as §1

[6] = tested on: KYSE-180 (Esophageal Squamous Cell Carcinoma)
In short: as §1

[7] = tested on: CAMA-1 (Breast Carcinoma)
In short: as §1

WM-115 (Melanoma) = tested on: WM-115 (Melanoma)
In short: as §1

[8] = tested on: HDQ-P1 (Breast Carcinoma)
In short: as §1

[9] = tested on: SW837 (Colorectal Carcinoma)
In short: as §1

[10] = tested on: KM12 (Colorectal Carcinoma)
In short: as §1

[11] = tested on: EVSA-T (Breast Carcinoma)
In short: as §1

[12] = tested on: L-540 (Hodgkin's Lymphoma)
In short: as §1

[13] = tested on: MFM-223 (Breast Carcinoma)
In short: as §1

[14] = tested on: DiFi (Colorectal Carcinoma)
In short: as §1

TC-71 (Ewing's Sarcoma) = tested on: TC-71 (Ewing's Sarcoma)
In short: as §1

MEL-JUSO (Melanoma) = tested on: MEL-JUSO (Melanoma)
In short: as §1

[15] = tested on: TOV-112D (Ovarian Carcinoma)
In short: as §1

| Structure (SMILES) | Bliss excess (U251 (Low Grade Glioma)) | Bliss excess (CHP-212 (Neuroblastoma)) | Bliss excess [1] | Bliss excess [2] | Bliss excess [3] | Bliss excess [4] | Bliss excess [5] | Bliss excess [6] | Bliss excess [7] | Bliss excess (WM-115 (Melanoma)) | Bliss excess [8] | Bliss excess [9] | Bliss excess [10] | Bliss excess [11] | Bliss excess [12] | Bliss excess [13] | Bliss excess [14] | Bliss excess (TC-71 (Ewing's Sarcoma)) | Bliss excess (MEL-JUSO (Melanoma)) | Bliss excess [15] |
| --- | --- | --- | --- | --- | --- | --- | --- | --- | --- | --- | --- | --- | --- | --- | --- | --- | --- | --- | --- | --- |
| Cc1c2c(nn1C)CSCc1cc(n(C)n1)CSc1cc(c3ccccc3c1)OCCCc1c(C(=O)O)n(C)c3c-2c(Cl)ccc13 [AZD5991] + Cn1cnc2c(F)c(Nc3ccc(Br)cc3Cl)c(C(=O)NOCCO)cc21 [Selumetinib] (first compound max 1 µM, 7x7, partner max 3 µM) | -0.0024 | -0.0136 | 0.0043 | -0.0226 | -0.0063 | 0.0347 | 0.042 | 0.0341 | -0.035 | -0.0114 | 0.0002 | 0.0024 | -0.0063 | 0.0136 | 0.0007 | -0.0199 | 0.0064 | 0.093 | 0.0046 | 0.0038 |
| CN(CCO)CC[C@H](CSc1ccccc1)Nc1ccc(S(=O)(=O)NC(=O)c2ccc(N3CCC([C@@H](O)c4ccccc4-c4ccc(Cl)cc4)CC3)cc2)cc1S(=O)(=O)C(F)(F)F [AZD4320] + CN(C)CCCOc1ccc(-c2ccc3ncc4c(c3c2)n(C2CCOCC2)c(=O)n4C)cn1 [AZD0156] (first compound max 1 µM, 7x7, partner max 1 µM) | -0.0374 | -0.056 | 0.0418 | -0.081 | -0.0429 | -0.0144 | 0.0109 | -0.0037 | -0.0591 | -0.0469 | -0.03 | -0.0322 | -0.0489 | -0.0125 | 0.0178 | -0.0347 | 0.0046 | -0.0112 | 0.0034 | -0.0078 |
| CC1(C)CCC(CN2CCN(c3ccc(C(=O)NS(=O)(=O)c4ccc(NCC5CCOCC5)c([N+](=O)[O-])c4)c(Oc4cnc5[nH]ccc5c4)c3)CC2)=C(c2ccc(Cl)cc2)C1 [Venetoclax] + Cn1cnc2c(F)c(Nc3ccc(Br)cc3Cl)c(C(=O)NOCCO)cc21 [Selumetinib] (first compound max 1 µM, 7x7, partner max 3 µM) | -0.0521 | -0.0011 | 0.0203 | -0.0298 | -0.0012 | 0 | -0.0428 | -0.0128 | -0.0332 | -0.0472 | -0.0377 | -0.0129 | -0.0213 | -0.017 | -0.0159 | -0.006 | -0.0967 | -0.0255 | -0.0481 | -0.0086 |
| CN(CCO)CC[C@H](CSc1ccccc1)Nc1ccc(S(=O)(=O)NC(=O)c2ccc(N3CCC([C@@H](O)c4ccccc4-c4ccc(Cl)cc4)CC3)cc2)cc1S(=O)(=O)C(F)(F)F [AZD4320] + Cc1cc2ncnn2cc1Nc1ncc2c(n1)n(C1CCOCC1)c(=O)n2C [AZD7648] (first compound max 1 µM, 7x7, partner max 10 µM) | -0.0405 | -0.0441 | -0.0059 | -0.0684 | -0.036 | -0.024 | 0.0478 | -0.0091 | -0.0031 | -0.0054 | -0.0085 | -0.0273 | -0.0234 | -0.0237 | 0.0389 | -0.0229 | -0.0203 | -0.0201 | -0.0065 | -0.019 |
| CCN(CCO)CCCOc1ccc2c(Nc3cc(CC(=O)Nc4cccc(F)c4)[nH]n3)ncnc2c1 [AZD2811] + C[C@@H]1COCCN1C2=NC(=NC(=C2)C3(CC3)[S@](=N)(=O)C)C4=C5C=CNC5=NC=C4 [AZD6738] (first compound max 1 µM, 7x7, partner max 10 µM) | -0.0255 | -0.0822 | -0.0175 | -0.0034 | -0.0513 | -0.0577 | -0.0089 | -0.0184 | -0.0417 | -0.0345 | -0.0597 | -0.0252 | -0.0709 | -0.0263 | -0.0078 | -0.0251 | -0.0331 | -0.0335 | -0.0644 | 0.0433 |
| CN(C)CCCOc1ccc(-c2ccc3ncc4c(c3c2)n(C2CCOCC2)c(=O)n4C)cn1 [AZD0156] + C[C@@H]1COCCN1C2=NC(=NC(=C2)C3(CC3)[S@](=N)(=O)C)C4=C5C=CNC5=NC=C4 [AZD6738] (first compound max 1 µM, 7x7, partner max 10 µM) | -0.0087 | -0.0047 | 0.0225 | -0.0169 | -0.0092 | 0.0254 | -0.0116 | 0.0762 | -0.0444 | -0.0565 | 0.0214 | 0.0071 | 0.0161 | 0.0081 | -0.0163 | 0.0432 | 0.0174 | 0.069 | 0.0108 | 0.0136 |
| CN(CCO)CC[C@H](CSc1ccccc1)Nc1ccc(S(=O)(=O)NC(=O)c2ccc(N3CCC([C@@H](O)c4ccccc4-c4ccc(Cl)cc4)CC3)cc2)cc1S(=O)(=O)C(F)(F)F [AZD4320] + Cn1cnc2c(F)c(Nc3ccc(Br)cc3Cl)c(C(=O)NOCCO)cc21 [Selumetinib] (first compound max 1 µM, 7x7, partner max 3 µM) | -0.0087 | -0.0108 | -0.0277 | 0.0536 | 0.0272 | 0.0416 | 0.0247 | 0.0148 | 0.0043 | 0.102 | 0.0877 | -0.0184 | 0.0423 | 0.0703 | -0.0184 | -0.0146 | 0.0838 | 0.0614 | -0.0081 | 0.0107 |
| Cc1c2c(nn1C)CSCc1cc(n(C)n1)CSc1cc(c3ccccc3c1)OCCCc1c(C(=O)O)n(C)c3c-2c(Cl)ccc13 [AZD5991] + C[C@@H]1COCCN1C2=NC(=NC(=C2)C3(CC3)[S@](=N)(=O)C)C4=C5C=CNC5=NC=C4 [AZD6738] (first compound max 1 µM, 7x7, partner max 10 µM) | 0.0572 | 0.0122 | 0.0298 | -0.0899 | 0.0118 | 0.0332 | 0.0145 | 0.0821 | 0.0332 | 0.0041 | 0.0563 | 0.0152 | 0.0321 | -0.0015 | 0.0278 | 0.0601 | 0.0302 | 0.0554 | 0.0406 | 0.0477 |
| Cc1c2c(nn1C)CSCc1cc(n(C)n1)CSc1cc(c3ccccc3c1)OCCCc1c(C(=O)O)n(C)c3c-2c(Cl)ccc13 [AZD5991] + C1CN(CCC1(C(=O)N[C@@H](CCO)C2=CC=C(C=C2)Cl)N)C3=NC=NC4=C3C=CN4 [Capivasertib] (first compound max 1 µM, 7x7, partner max 3 µM) | 0.0231 | -0.0066 | -0.0177 | -0.0078 | -0.0198 | -0.019 | 0.0714 | 0.0306 | 0.0993 | 0.0165 | 0.0072 | -0.0191 | 0.0136 | -0.0074 | 0.0152 | 0.0005 | 0.0384 | 0.0256 | -0.0203 | -0.0181 |
| CCN(CCO)CCCOc1ccc2c(Nc3cc(CC(=O)Nc4cccc(F)c4)[nH]n3)ncnc2c1 [AZD2811] + O=C(c1cc(Cc2n[nH]c(=O)c3ccccc23)ccc1F)N1CCN(C(=O)C2CC2)CC1 [Olaparib] (first compound max 1 µM, 7x7, partner max 10 µM) | 0.0281 | -0.0249 | -0.0006 | -0.0223 | -0.0319 | -0.0029 | -0.0464 | 0.0207 | -0.0308 | -0.0343 | 0.0076 | 0.0027 | 0.0068 | 0.0242 | 0.0113 | 0.0058 | -0.0153 | -0.0772 | -0.0015 | 0.0355 |
| Cc1c2c(nn1C)CSCc1cc(n(C)n1)CSc1cc(c3ccccc3c1)OCCCc1c(C(=O)O)n(C)c3c-2c(Cl)ccc13 [AZD5991] + CN(C)CCCOc1ccc(-c2ccc3ncc4c(c3c2)n(C2CCOCC2)c(=O)n4C)cn1 [AZD0156] (first compound max 1 µM, 7x7, partner max 1 µM) | 0.0334 | -0.0538 | -0.0167 | -0.0427 | 0.0021 | 0.0004 | -0.0131 | 0.0286 | 0.002 | -0.0136 | 0.0104 | 0.0004 | -0.0453 | -0.0304 | -0.0021 | -0.0038 | -0.0112 | -0.001 | 0.0023 | -0.0265 |
| CN(C)CCCOc1ccc(-c2ccc3ncc4c(c3c2)n(C2CCOCC2)c(=O)n4C)cn1 [AZD0156] + O=C(c1cc(Cc2n[nH]c(=O)c3ccccc23)ccc1F)N1CCN(C(=O)C2CC2)CC1 [Olaparib] (first compound max 3 µM, partner max 3 µM) | 0.0345 | 0.222 | 0.0029 | -0.0152 | -0.0432 | 0.0848 | 0.227 | 0.0654 | 0.0457 | 0.0028 | -0.0859 | 0.0159 | 0.121 | 0.092 | 0.0746 | -0.0186 | -0.0082 | 0.3 | -0.0387 | 0.0851 |
